Consider 2 compounds from PMC4141155 (2014).

“And” between values parts separate entries of the source, which are not always exact repeats. Equal entries are not always repeated.

Experiment [1] concerns d[(TTAGGG)4TTA] (DNA, G4) TTAGGGTTAGGGTTAGGGTTAGGGTTA
Kind of experiment: ESI-TOF-MS. Conditions: NH4+ 50 mM (ammonium acetate), pH 7.6, 50 % methanol.

Experiment [2] has as its system dAGGG(TTAGGG)3 (DNA, G4) AGGGTTAGGGTTAGGGTTAGGG
Kind of experiment: UV melting at 295 nm. As to conditions: K+ 100 mM (KCl); 25 mM Tris–HCl pH 7.4; 5 μM DNA, 10 μM ligand; 2.27 °C higher than tetrachloride.

Experiment [3] concerns d[(TTAGGG)4TTA] (DNA, G4) TTAGGGTTAGGGTTAGGGTTAGGGTTA
Kind of experiment: ESI-TOF-MS fraction of bound G-quadruplex. Conditions: NH4+ 50 mM (ammonium acetate); pH 7.6, 50 % methanol; equimolar 10 μM.

The test system of experiment [4] is r[(UUAGGG)4UUA] (RNA, G4) UUAGGGUUAGGGUUAGGGUUAGGGUUA
Kind of experiment: ESI-TOF-MS. As to conditions: NH4+ 50 mM (ammonium acetate); pH 7.6, 50 % methanol, equimolar 5 or 10 μM; first of two stepwise constants.

As for `Cc1ccc(S(=O)(=O)O)cc1`, the binding entry in experiment [1] (tosyl adducts seen in equimolar mixture with TMPyP4 tetratosylate, 10 μM) is recorded as “yes”.

`C[n+]1ccc(-c2c3nc(c(-c4cc[n+](C)cc4)c4ccc([nH]4)c(-c4cc[n+](C)cc4)c4nc(c(-c5cc[n+](C)cc5)c5ccc2[nH]5)C=C4)C=C3)cc1`: the “K 1” value in experiment [1] (equimolar 5 or 10 μM, first of two stepwise constants) is “(1.87 ± 0.19) × 10^6 M^−1”. In addition, the binding entry in experiment [2] is on record as “yes”. For the same compound, the RBA in experiment [3] was 85.96% and 72.28%. Besides, in experiment [4], the “K 1 (column head misprinted K 2)” value was “(5.62 ± 0.71) × 10^7 M^−1”.
